Values after ≈ are worked out from the molar mass of the structure shown.
Molecular target: T1, α-glucosidase from Saccharomyces cerevisiae
T1 construct: gene MAL12
Assay: pNPG hydrolysis, absorbance […] nm
Assay type: biochemical
Settings: substrate pNPG (50 uL of 3 mM in 200 uL), 37 °C

IC50: 2.98 ± 0.40 µg/mL (≈ 9.86 µM)
SMILES: O=c1c(O)c(-c2ccc(O)c(O)c2)oc2cc(O)cc(O)c12 [Quercetin]
